In the first assay the target is T1, Serine/threonine-protein kinase PAK 1 (Homo sapiens, UniProt Q13153). Nature of the assay: Inhibition of PAK1 at 31 uM.
T1 sequence (Q13153 whole entry): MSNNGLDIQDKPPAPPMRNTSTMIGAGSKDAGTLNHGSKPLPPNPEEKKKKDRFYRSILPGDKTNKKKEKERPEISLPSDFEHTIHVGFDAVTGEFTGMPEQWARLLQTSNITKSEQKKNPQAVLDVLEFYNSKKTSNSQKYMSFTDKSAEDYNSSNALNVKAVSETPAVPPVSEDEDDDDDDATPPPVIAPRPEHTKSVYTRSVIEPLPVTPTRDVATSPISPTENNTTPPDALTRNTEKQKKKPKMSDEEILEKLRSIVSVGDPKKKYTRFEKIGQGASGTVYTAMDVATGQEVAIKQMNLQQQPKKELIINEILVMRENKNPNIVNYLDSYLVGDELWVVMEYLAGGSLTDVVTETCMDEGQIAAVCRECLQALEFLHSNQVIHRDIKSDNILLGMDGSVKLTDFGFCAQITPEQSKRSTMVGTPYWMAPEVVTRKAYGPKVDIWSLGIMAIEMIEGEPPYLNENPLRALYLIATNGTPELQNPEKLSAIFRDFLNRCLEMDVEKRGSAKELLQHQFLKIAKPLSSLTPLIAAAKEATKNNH
`Nc1nc2[nH]cnc2c(=S)[nH]1` showed an inhibition of 31%.
The same measure, in the same setting: with `Nc1nc(N)c2nc(-c3ccccc3)c(N)nc2n1` the figure was 100%.

For a further assay, the target named is Ribosomal protein S6 kinase beta-1 (Homo sapiens) (UniProt P23443). Nature of the assay: Inhibition of p70S6K at 33 uM.
Ribosomal protein S6 kinase beta-1 (Homo sapiens), sequence (P23443 whole entry, looked up): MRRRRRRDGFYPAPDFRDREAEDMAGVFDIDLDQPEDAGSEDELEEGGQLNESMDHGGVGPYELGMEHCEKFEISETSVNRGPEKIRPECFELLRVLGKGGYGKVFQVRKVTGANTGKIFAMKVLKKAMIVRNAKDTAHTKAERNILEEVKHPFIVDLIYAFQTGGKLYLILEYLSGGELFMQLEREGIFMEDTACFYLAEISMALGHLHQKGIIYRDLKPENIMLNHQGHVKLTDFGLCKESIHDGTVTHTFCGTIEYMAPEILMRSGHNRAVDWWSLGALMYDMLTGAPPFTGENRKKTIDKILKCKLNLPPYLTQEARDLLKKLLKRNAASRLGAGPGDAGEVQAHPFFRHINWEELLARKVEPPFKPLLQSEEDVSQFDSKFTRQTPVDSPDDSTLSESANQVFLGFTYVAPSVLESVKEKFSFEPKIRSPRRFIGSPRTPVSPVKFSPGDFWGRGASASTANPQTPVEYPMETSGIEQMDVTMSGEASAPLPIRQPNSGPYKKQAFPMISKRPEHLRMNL
Consider `Nc1nc(N)c2nc(-c3ccccc3)c(N)nc2n1`, for which the inhibition came out at 95%.
With `COc1c2occc2cc2ccc(=O)oc12`, the inhibition stood at 64%.

Another assay concerns the target T2, Serine/threonine-protein kinase Sgk1 (Homo sapiens) (UniProt O00141).
T2 sequence (whole entry): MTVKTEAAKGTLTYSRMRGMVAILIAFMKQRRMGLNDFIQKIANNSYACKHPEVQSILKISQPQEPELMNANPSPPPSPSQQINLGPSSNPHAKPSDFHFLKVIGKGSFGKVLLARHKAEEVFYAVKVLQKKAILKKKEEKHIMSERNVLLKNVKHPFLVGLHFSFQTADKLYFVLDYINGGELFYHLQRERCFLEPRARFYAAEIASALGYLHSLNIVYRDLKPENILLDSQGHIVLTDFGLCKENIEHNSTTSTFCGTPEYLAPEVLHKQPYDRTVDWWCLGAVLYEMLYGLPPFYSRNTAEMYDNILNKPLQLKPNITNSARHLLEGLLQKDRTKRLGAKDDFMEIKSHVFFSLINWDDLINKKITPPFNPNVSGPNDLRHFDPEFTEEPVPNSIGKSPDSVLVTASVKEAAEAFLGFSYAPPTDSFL
Nature of the assay: Inhibition of SGK1 at 33 uM.
As for `O=C(O)c1cc(/N=N/c2ccc(S(=O)(=O)Nc3ccccn3)cc2)ccc1O`, the inhibition came out at 70%.
On to `Nc1nc(N)c2nc(-c3ccccc3)c(N)nc2n1`, for which the inhibition was found to be 94%.

For a further assay, the target named is T1, Serine/threonine-protein kinase PAK 1. Nature of the assay: Inhibition of PAK1.
Compound `CC(Sc1ncnc2nc[nH]c12)c1ccccc1Cl` (configuration not stated) registered an IC50 of 23 µM.
Same read-out and setting: in the case of `c1nc2nc(NC3CCCCC3)ncc2[nH]1` it was 31 µM.
Same read-out and setting: in the case of `c1nc(N2CCOCC2)c2nc[nH]c2n1` it was 18 µM; in that of `CCCCCSc1ncnc2nc[nH]c12`, 38 µM; in that of `CC1CC(Nc2ncnc3nc[nH]c23)CC(C)(C)C1` (configuration not stated), 23 µM.
Same read-out and setting: with `c1nc(NC2CCCC2)c2nc[nH]c2n1` the figure was 18 µM.

As usually defined, the inhibition is the percentage by which the read-out fell short of the control. Read a high inhibition as strong suppression. A word on the IC50: it is the concentration needed to halve the response being measured. High values mean lower potency, low ones higher potency.
